Laboratory results from PMC9667588, “Synthesis and bioactivities evaluation of quinazolin-4(3H)-one derivatives as α-glucosidase inhibitors” (BMC Chemistry, 2022).
“Also recorded” adds a separate entry of the source.

biological target: T1, α-glucosidase (Saccharomyces cerevisiae, UniProt P53341); assay: α-glucosidase inhibition assay; assay type: biochemical; conditions: not given
T1 sequence (P53341 whole entry): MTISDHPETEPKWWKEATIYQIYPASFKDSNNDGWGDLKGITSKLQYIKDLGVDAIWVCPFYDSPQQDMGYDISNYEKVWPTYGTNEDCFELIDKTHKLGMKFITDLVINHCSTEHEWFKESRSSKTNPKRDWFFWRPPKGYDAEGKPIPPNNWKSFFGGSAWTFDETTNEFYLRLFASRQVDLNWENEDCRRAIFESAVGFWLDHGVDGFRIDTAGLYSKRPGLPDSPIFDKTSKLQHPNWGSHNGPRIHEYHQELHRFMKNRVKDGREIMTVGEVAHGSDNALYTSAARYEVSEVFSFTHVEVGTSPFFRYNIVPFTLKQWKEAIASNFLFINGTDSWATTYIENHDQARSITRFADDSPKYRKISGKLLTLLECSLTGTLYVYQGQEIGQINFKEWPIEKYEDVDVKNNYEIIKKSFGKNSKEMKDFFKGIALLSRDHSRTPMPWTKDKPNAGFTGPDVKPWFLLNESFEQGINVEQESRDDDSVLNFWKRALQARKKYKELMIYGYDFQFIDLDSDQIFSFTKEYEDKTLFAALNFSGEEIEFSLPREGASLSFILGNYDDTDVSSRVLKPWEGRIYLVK

| activity against α-glucosidase under the tested concentration | Structure (SMILES) |
| --- | --- |
| did not show any activity | COc1ccc(NC(=O)COc2ccc(-c3nc4ccccc4c(=O)[nH]3)cc2OC)cc1 [Compound 7l, 2-(2-methoxy-4-(4-oxo-3,4-dihydroquinazolin-2-yl)phenoxy)-N-(4-methoxyphenyl)acetamide] |
| did not show any activity | COc1cc(-c2nc3ccccc3c(=O)[nH]2)ccc1OCC(=O)Nc1ccc([N+](=O)[O-])cc1 [Compound 7n, 2-(2-methoxy-4-(4-oxo-3,4-dihydroquinazolin-2-yl)phenoxy)-N-(4-nitrophenyl)acetamide] |
| did not show any activity | COc1cc(-c2nc3ccccc3c(=O)[nH]2)ccc1OCC(=O)Nc1ccc(O)cc1 [Compound 7m, N-(4-hydroxyphenyl)-2-(2-methoxy-4-(4-oxo-3,4-dihydroquinazolin-2-yl)phenoxy)acetamide] |

tested on: breast cancer cell line MCF-7; assay: not given; set-up: method as in PMID 30366316; conditions: cited from earlier work

| Structure (SMILES) | toxicity against breast cancer cell line MCF-7 |
| --- | --- |
| O=c1c2ccccc2nc(SCc2cn(Cc3ccc(Br)cc3)nn2)n1CCc1ccccc1 [B] | no toxicity |

biological target: T1, α-glucosidase; assay: Enzyme kinetic studies (Lineweaver–Burk plot, secondary plot); assay type: biochemical; conditions: Km increased, Vmax unchanged
Protocol: A Lineweaver–Burk plot was generated to identify the type of inhibition and the Michaelis–Menten constant (Km) value was determined from the plot between the reciprocal of the substrate concentration (1/[S]) and reciprocal of enzyme rate (1/V) over various inhibitor concentrations. The experimental inhibitor constant (Ki) value was constructed by secondary plots of the inhibitor concentration [I] versus Km.

| Structure (SMILES) | type of inhibition |
| --- | --- |
| COc1cc(-c2nc3ccccc3c(=O)[nH]2)ccc1OCC(=O)Nc1ccccc1F [Compound 7b, N-(2-fluorophenyl)-2-(2-methoxy-4-(4-oxo-3,4-dihydroquinazolin-2-yl)phenoxy)acetamide] | competitive type; also recorded: competitive inhibition; also recorded: competitive inhibitor |

tested on: not given; assay: not given; conditions: not given

| Structure (SMILES) | melting point |
| --- | --- |
| COc1cc(-c2nc3ccccc3c(=O)[nH]2)ccc1OCC(=O)NCc1ccccc1 [Compound 7r, N-benzyl-2-(2-methoxy-4-(4-oxo-3,4-dihydroquinazolin-2-yl)phenoxy)acetamide] | 194 to 196 °C |
| COc1cc(-c2nc3ccccc3c(=O)[nH]2)ccc1OCC(=O)NCc1ccc(C)cc1 [Compound 7p, 2-(2-methoxy-4-(4-oxo-3,4-dihydroquinazolin-2-yl)phenoxy)-N-(4-methylbenzyl)acetamide] | 191 to 193 °C |
| COc1cc(-c2nc3ccccc3c(=O)[nH]2)ccc1OCC(=O)Nc1ccccc1F [Compound 7b, N-(2-fluorophenyl)-2-(2-methoxy-4-(4-oxo-3,4-dihydroquinazolin-2-yl)phenoxy)acetamide] | 222 to 225 °C |
| COc1ccc(NC(=O)COc2ccc(-c3nc4ccccc4c(=O)[nH]3)cc2OC)cc1 [Compound 7l, 2-(2-methoxy-4-(4-oxo-3,4-dihydroquinazolin-2-yl)phenoxy)-N-(4-methoxyphenyl)acetamide] | 205 to 207 °C |
| COc1cc(-c2nc3ccccc3c(=O)[nH]2)ccc1OCC(=O)Nc1c(C)cccc1C [Compound 7j, N-(2,6-dimethylphenyl)-2-(2-methoxy-4-(4-oxo-3,4-dihydroquinazolin-2-yl)phenoxy)acetamide] | 215 to 217 °C |
| COc1cc(-c2nc3ccccc3c(=O)[nH]2)ccc1OCC(=O)Nc1ccccc1C [Compound 7h, 2-(2-methoxy-4-(4-oxo-3,4-dihydroquinazolin-2-yl)phenoxy)-N-(o-tolyl)acetamide] | 196 to 198 °C |
| COc1cc(-c2nc3ccccc3c(=O)[nH]2)ccc1OCC(=O)Nc1ccc2ccccc2c1 [Compound 7o, 2-(2-methoxy-4-(4-oxo-3,4-dihydroquinazolin-2-yl)phenoxy)-N-(naphthalen-2-yl)acetamide] | 217 to 219 °C |
| CCc1ccc(NC(=O)COc2ccc(-c3nc4ccccc4c(=O)[nH]3)cc2OC)cc1 [Compound 7k, N-(4-ethylphenyl)-2-(2-methoxy-4-(4-oxo-3,4-dihydroquinazolin-2-yl)phenoxy)acetamide] | 195 to 197 °C |
| COc1cc(-c2nc3ccccc3c(=O)[nH]2)ccc1OCC(=O)NCc1ccc(F)cc1 [Compound 7q, N-(4-fluorobenzyl)-2-(2-methoxy-4-(4-oxo-3,4-dihydroquinazolin-2-yl)phenoxy)acetamide] | 224 to 226 °C |

Results, then the compound that gave them:

| melting point | Structure (SMILES) |
| --- | --- |
| 211 to 213 °C | COc1cc(-c2nc3ccccc3c(=O)[nH]2)ccc1OCC(=O)Nc1ccc(Cl)cc1 [Compound 7f, N-(4-chlorophenyl)-2-(2-methoxy-4-(4-oxo-3,4-dihydroquinazolin-2-yl)phenoxy)acetamide] |
| 199 to 201 °C | COc1cc(-c2nc3ccccc3c(=O)[nH]2)ccc1OCC(=O)Nc1ccc(C)cc1 [Compound 7i, 2-(2-methoxy-4-(4-oxo-3,4-dihydroquinazolin-2-yl)phenoxy)-N-(p-tolyl)acetamide] |
| 207 to 209 °C | COc1cc(-c2nc3ccccc3c(=O)[nH]2)ccc1OCC(=O)Nc1ccccc1Cl [Compound 7d, N-(2-chlorophenyl)-2-(2-methoxy-4-(4-oxo-3,4-dihydroquinazolin-2-yl)phenoxy)acetamide] |
| 192 to 194 °C | COc1cc(-c2nc3ccccc3c(=O)[nH]2)ccc1OCC(=O)Nc1ccccc1 [Compound 7a, 2-(2-methoxy-4-(4-oxo-3,4-dihydroquinazolin-2-yl)phenoxy)-N-phenylacetamide] |
| 216 to 218 °C | COc1cc(-c2nc3ccccc3c(=O)[nH]2)ccc1OCC(=O)Nc1ccc(F)cc1 [Compound 7c, N-(4-fluorophenyl)-2-(2-methoxy-4-(4-oxo-3,4-dihydroquinazolin-2-yl)phenoxy)acetamide] |
| 203 to 205 °C | COc1cc(-c2nc3ccccc3c(=O)[nH]2)ccc1OCC(=O)Nc1cccc(Cl)c1 [Compound 7e, N-(3-chlorophenyl)-2-(2-methoxy-4-(4-oxo-3,4-dihydroquinazolin-2-yl)phenoxy)acetamide] |
| 203 to 205 °C | COc1cc(-c2nc3ccccc3c(=O)[nH]2)ccc1OCC(=O)Nc1ccc(Br)cc1 [Compound 7g, N-(4-bromophenyl)-2-(2-methoxy-4-(4-oxo-3,4-dihydroquinazolin-2-yl)phenoxy)acetamide] |

biological target: T1, α-glucosidase; assay: not given; conditions: cited from earlier work

| Structure (SMILES) | type of inhibition |
| --- | --- |
| O=C(Cn1cc(COc2ccc(-c3nc4ccccc4c(=O)[nH]3)cc2)nn1)Nc1ccccc1 [C] | competitive |

tested on: α-amylase; assay: not given; set-up: method as in doi:10.1016/j.molstruc.2022.133650; conditions: at 108 μM; cited from earlier work

| Structure (SMILES) | % inhibition against α-amylase |
| --- | --- |
| COc1cc(-c2nc3ccccc3[nH]2)ccc1OCC(=O)Nc1ccc(F)cc1 [F] | 45.0 ± 0.8% |
